Results: PMC6482174, “Fragment-based screening identifies inhibitors of ATPase activity and of hexamer formation of Cagα from the Helicobacter pylori type IV secretion system” (Scientific Reports, 2019)

Columns and labels:
H. pylori 26695 = assay: H. pylori growth on solid agar media (Whatman paper disks); type: cell-based, Helicobacter pylori; settings: 72 h
From the text: (§1) Finally, we assessed whether molecule 1G2 or its derivates impact the functionality of the T4SS in vivo. To this effect, we tested their impact on the interaction of H. pylori strain 26695 with gastric adenocarcinoma (AGS) cells. […] We then tested the effects of these molecules in two commonly used assays for downstream effects of T4SS function: IL-8 production and CagA phosphorylation. […] In contrast, derivates 1G2#1 to #6 have no effect on IL-8 production. Similarly, none of the molecules reduces the tyrosine phosphorylation of the T4SS-translocated virulence factor CagA, which is generally used as an alternative assay to measure T4SS function (Supplementary Fig. 8). […] This observation may be due to partial inhibition of T4SS function by 1G2 that is more readily quantifiable in the IL-8 production assay as compared to the CagA phosphorylation assay.
AGS cell viability was monitored using Cell Proliferation Reagent WST-1 (Sigma). To evaluate the sensitivity of H. pylori to 1G2 and its derivates, freshly harvested bacteria were spread on a 150-mm agar plate. Increasing concentrations of compounds (50–500 μM) were spotted onto Whatman paper disks and growth was observed after 72 h incubation at 37 °C under microaerophilic conditions and compared to antibiotics (50–250 μM).
Supplementary Figure 6. Effects of molecule 1G2 and its derivates on H. pylori growth. […]

[1] = system: IL-8 production by AGS cells upon co-cultivation with H. pylori; assay: IL-8 induction in AGS cells co-cultivated with H. pylori (ELISA); type: cell-based, Helicobacter pylori; settings: 200 μM
From the text: as §1
Figure 6 Molecule 1G2 decreases IL-8 induction in co-cultivated AGS cells. H. pylori 26695 without and after pre-incubation with 1G2 and its derivatives for […]. AGS cells were then co-cultured with H. pylori overnight and IL-8 induction was measured by ELISA. The induction of IL-8 by the wild type was calculated as 100% (WT), induction of IL-8 by the ΔcagV strain was used as negative control. The data represent the results from three experiments. […]

Cagα ATPase activity = Cagα ATPase activity (Helicobacter pylori, UniProt G5EB02); assay: Malachite green ATPase activity assay; type: biochemical; settings: for Mechanism of inhibition: inhibitor 0 to 500 μM, ATP varied, only Vmax affected, Km constant
Chain of Cagα ATPase activity (G5EB02 entry or part of it): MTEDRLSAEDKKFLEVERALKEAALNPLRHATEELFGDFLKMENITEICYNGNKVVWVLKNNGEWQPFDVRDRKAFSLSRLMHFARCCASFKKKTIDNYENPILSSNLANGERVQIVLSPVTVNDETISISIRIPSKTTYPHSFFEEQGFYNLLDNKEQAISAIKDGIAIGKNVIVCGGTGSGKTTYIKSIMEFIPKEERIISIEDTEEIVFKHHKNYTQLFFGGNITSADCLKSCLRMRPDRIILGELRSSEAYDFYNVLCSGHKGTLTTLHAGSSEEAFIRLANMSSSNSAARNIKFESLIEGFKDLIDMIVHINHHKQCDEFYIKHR
Protocol: We used a Malachite green assay to measure the release of inorganic phosphate from ATP to assess whether the 16 binding fragments impact the enzymatic activity of Cagα. […] Therefore, the mechanism of inhibition by molecules 1G2 and 1G2#4 is non-competitive.
The ATPase activity was quantified using a malachite green binding assay. The 100 μL reaction mixtures contained 25 mM HEPES (pH 7.5), 100 mM NaCl, 60 nM of enzyme and 200 µM of MgCl2 with different concentrations of ATP (0 µM–320 µM) to determine kinetic parameters. The reaction mixtures were incubated for 30 min at 30 °C and then 40 μL of malachite green assay mixture was added. The formation of the blue phosphomolybdate-malachite green complex was in linear relation to the amount of released inorganic phosphate and measured at 610 nm. To study the mechanism of inhibition, the concentrations of inhibitors were varied between 0 and 500 μM with different concentrations of ATP (0–40 μM). Initial velocity data were fit using nonlinear regression analysis to each of the equations describing partial and full models of competitive, uncompetitive, non-competitive, and mixed inhibition using the Enzyme Kinetics Module of SigmaPlot (SigmaPlot version 11.0 software). On the basis of the analysis of fits through “goodness-of-fit” statistics, the full non-competitive inhibition model was determined with the equation ν = Vmax/[(1 + [I]/Ki) × (1 + Km/[S])], where [S] = [ATP], [I] = [1G2].
IC50 values were determined by incubating different concentrations of molecules (10–1,000 µM; from stocks of 200 mM) with enzyme in 25 mM HEPES (pH 7.5) and 100 mM NaCl. Mixtures were incubated with inhibitors for 15 min, followed by addition of ATP and incubation for 30 min at 37 °C. The reactions were stopped by addition of 40 µl malachite green solution and the inorganic phosphate released was determined at 610 nm. Data were plotted as 1/rate versus inhibitor concentration for each substrate concentration and a linear fit was calculated by non-linear regression using SigmaPlot (version 11.0).

[2] = system: tyrosine phosphorylation of the T4SS-translocated virulence factor CagA; assay: CagA transfer into AGS cells / CagA tyrosine phosphorylation (western blot); type: cell-based, Helicobacter pylori; settings: H. pylori pre-incubated with molecule, AGS infection
From the text: as §1
Preceding the infection, an overnight culture of H. pylori was pre-incubated with 1G2 and its derivates for 30 min. AGS cells at 6 × 10^5 cells/well density in 6-well plates were infected with the pre-treated cultures of H. pylori for 3–6 h at a multiplicity of infection of 100:1. […]
Western blot analyses were reproduced four times and intensities of the CagAPY signals were quantified (Image Lab TM Software) and normalized using anti -b-actin signals. […]

Row | SMILES | Effect on growth of H. pylori (control antibiotic) (H. pylori 26695; several concentrations on Whatman paper disks) | IL-8 production, of the control ([1]; wild type without molecule = 100%) | IC50 (Cagα ATPase activity) [µM] | Mechanism of inhibition (Cagα ATPase activity) | Effect on tyrosine phosphorylation of CagA [2] | Effect on growth of H. pylori on solid agar media (H. pylori 26695; concentrations up to 500 μM) | Effect on IL-8 production (in words) [1]
1 | O=C(N[C@H](CO)[C@H](O)c1ccc([N+](=O)[O-])cc1)C(Cl)Cl [chloramphenicol, reference compound] | inhibition of growth | – | – | – | – | – | –
2 | O=C(O)c1ccc(Oc2ccccn2)cc1 [1G2] | – | about 50% | 196 | non-competitive | did not observe an effect | no negative effect | –
3 | Cc1ccc(Oc2ccc(C(=O)O)cc2)nc1 [1G2#4] | – | – | 81.9 | non-competitive | no effect | – | no effect
